# Data reported in US10159672B2 (PARION SCIENCES, INC., priority 2011, dated 2018).
# Legend:
# [1] = Clearance from the ocular surface (extraction from PRT threads, UPLC); assay type: in vivo, Rats, Sprague Dawley
# Experimental: Procedure for P-1046 (Compound 15 Formula I, aka I, aka P-1046, aka 1046): […]
# Extraction from PRT Threads:
# All PRT threads were collected in eppendorf tubes and stored at −20 C until the time of drug concentration analysis. P-1046 was extracted from threads and analyzed as follows:
# (§1) • 1. 200 μL of 70% ACN (70% ACN, 30% H2O) was added into sample tubes which have threads in them. • 2. Tubes from Step 1 were vortexed for 30 seconds and sonicated for 1 minute to fully immerse the threads. • 3. The sample solutions were incubated for 4 hours at room temperature. • 4. Samples were vortexed again for 30 seconds. • 5. 75 μL, of the each sample solution (from step 4) was removed into 96-well UPLC plate with an additional 75 μL of mobile phase A (5 mM ammonium formate, 0.1% formic acid in H2O) added into each sample well. • 6. Analytical standards (10 mM, 1 mM, 100 µM, 10 µM, 1 µM, 100 nM, Buffer) were prepared identically to the thread solutions. • 7. Drug concentrations from all samples were analyzed by UPLC. Solubility and Stability Testing for Compound 15 (Formula I, aka I, aka P-1046, aka 1046): Procedure for Solubility and Stability Evaluation: • 1. Prepare 2.8% NaCl and 25 mM citrate buffer, pH of the solution 4.2. The osmolality of the solution is approximately 940 mOsM. • 2. Add appropriate amount of buffer solution to a test compound to make approximate concentration of 10 mg/mL. • 3. Vortex the solution for 15 seconds, sonicate for 30 seconds, again vortex for 60 seconds and visually observe the solution. • 4. Calculate final concentration of the solution by a spectrophotometer. • Remove a portion of solution and dilute it to 1:10 ratio. Put this solution at 50° C. for the accelerated stability study for 10 days. • Obtain stability data by HPLC analysis • 5. Prepare 2.8% NaCl and 25 mM citrate buffer, pH of the solution 4.2. The osmolality of the solution is approximately 940 mOsM. • 6. Add appropriate amount of buffer solution to a test compound to make approximate concentration of 10 mg/mL. • 7. […]
# [2] = tested on: Human Bronchial Epithelial Cells; test: Absorption rate across human bronchial epithelial cells; assay type: in vitro ADME; details: n=3
# Experimental: Bronchial cells (dog, human, sheep, or rodent cells) are seeded at a density of 0.25×10^6/cm^2 on a porous Transwell-Col collagen-coated membrane with a growth area of 1.13 cm^2 grown at an air-liquid interface in hormonally defined media that promotes a polarized epithelium. From 12 to 20 days after development of an air-liquid interface (ALI) the cultures are expected to be >90% ciliated, and mucins will accumulate on the cells. To ensure the integrity of primary airway epithelial cell preparations, the transepithelial resistance (R1) and transepithelial potential differences (PD), which are indicators of the integrity of polarized nature of the culture, are measured. […] Concentrations are determined by measuring intrinsic fluorescence of each sodium channel blocker using a Fluorocount Microplate Flourometer or HPLC. Quantitative analysis employs a standard curve generated from authentic reference standard materials of known concentration and purity. […]
# In the first series of assays, the interaction of test compounds in KBR as an “ASL” stimulant are applied to the apical surface of human airway epithelial cells grown in the T-Col insert system. […] In instances where the fluorescence properties of the test molecule are not adequate for such characterizations, radiolabeled compounds are used for these assays. […]
# [3] = Human plasma protein binding; assay type: in vitro ADME; details: n=6, read-out: Human Plasma Protein Binding, bound to plasma proteins (converted)
# [4] = Solubility and accelerated stability in citrate buffer; assay type: physicochemical; details: pH 4.2 citrate buffer with 2.8% NaCl
# Experimental: as §1, with “ratio.” for “ratio. Put this solution at 50° C. for the accelerated stability study for 10 days. • Obtain stability data by HPLC analysis • 5. Prepare 2.8% NaCl and 25 mM citrate buffer, pH of the solution 4.2. The osmolality of the solution is approximately 940 mOsM. • 6. Add appropriate amount of buffer solution to a test compound to make approximate concentration of 10 mg/mL. • 7.”
compound,measurement,setting,value
"CN(C)C(=O)[C@H](CCCCNC(=N)N)NC(=O)[C@H](CCc1ccc(CCCCNC(=N)NC(=O)c2nc(Cl)c(N)nc2N)cc1)N(C)C [Compound I, 3,5-diamino-6-chloro-N-(N-(4-(4-((S)-3-(dimethylamino)-4-((S)-1-(dimethylamino)-6-guanidino-1-oxohexan-2-ylamino)-4-oxobutyl)phenyl)butyl)carbamimidoyl)pyrazine-2-carboxamide]","Clearance from the ocular surface, profile",[1]; all concentrations tested,apparent bi-phasic clearance
same,Concentration on ocular surface during the slow clearance phase vs IC50,"[1]; dosed concentration >1 mM, 30 to 120 minutes post-dose",well above the IC50
same,Time by which the majority of the drug is cleared from the ocular surface,"[1]; post-dose, followed by slow clearance phase 30 to 120 minutes",≤ 30 min
same,Absorption Rate Across Human Bronchial Epithelial Cells,[2],0.12±0.05 nM/cm^2/min
same,fraction unbound,[3],0.2
same,"Stability (HPLC), degradation",[4]; 10 days at 50° C.,No degradation
same,solubility,"[4]; aqueous buffer, thermodynamic from solid, highest concentration tested",≥ 8800 µg/mL
